Data from US5599793A, “Antithromobotic agents” (Eli Lilly and Company, priority 1995, dated 1997).

Legend:
Human Thrombin = Human Thrombin (Homo sapiens, UniProt P00734); assay: Inhibition of amidase activity of thrombin (Kass); assay type: biochemical; settings: apparent association constant, mean over a range of concentrations
Method: (§1) The assay is carried out by mixing 50 μL buffer (0.03M Tris, 0.15M NaCl, pH 7.4) with 25 μL of bovine thrombin or human thrombin solution (0.21 mg/mL of thrombostat bovine thrombin, Parke-Davis, or purified human thrombin, Enzyme Research Laboratories, South Bend, Ind., at about 8 NIH units/mL, in the same buffer) and 25 μL of test compound in a solvent (in 50% aqueous methanol, v:v). The 150 μL of an aqueous solution of the chromogenic substrate (at 0.25 mg/mL) are added and the rates of hydrolysis of the substrate are measured by monitoring the reactions at 405 nm for the release of p-nitroaniline. Standard curves are constructed by plotting free thrombin concentration against hydrolysis rate. The hydrolysis rates observed with test compounds are then converted to "free thrombin" values in the respective assays by use of the standard curves. The bound thrombin (bound to test compound) is calculated by subtracting the amount of free thrombin observed in each assay from the known initial amount of thrombin used in the assay. The amount of free inhibitor in each assay is calculated by subtracting the number of moles of bound thrombin from the number of moles of added inhibitor (test compound).
The Kass value is the hypothetical equilibrium constant for the reaction between thrombin and the test compound (I). [drawing 54]
(§2) Kass is calculated for a range of concentrations of test compounds and the mean value is reported in units of liter per mole.

factor Xa = biological target: T1, factor Xa (Homo sapiens, UniProt P00742); assay: Serine protease selectivity, chromogenic substrate (Kass), factor Xa; assay type: biochemical; settings: substrate N-Benzoyl-Ile-Glu-Gly-Arg-p-nitroanilide
T1 construct: Human factors X, Xa, IXa, XIa, and XIIa are purchased; purchased Enzyme Research Laboratories, South Bend, Ind
Method: as §1, §2
(§3) By substantially following the procedures described above for human thrombin, and using other human blood coagulation system serine proteases and proteases of the fibrinolytic system with the appropriate chromogenic substrates, identified below, selectivity of the compounds of the present invention with respect to the coagulation factor serine proteases and with respect to the fibrinolytic system serine proteases are evaluated as well as their substantial lack of interference with serine proteases of the fibrinolytic system. Thrombin inhibitors preferably should spare fibrinolysis induced by urokinase, tissue plasminogen activator (t-PA) and streptokinase. This would be important to the therapeutic use of such agents as an adjunct to streptokinase, t-PA or urokinase thrombolytic therapy and to the use of such agents as an endogenous fibrinolysis-sparing (with respect to t-PA and urokinase) antithrombotic agent. In addition to the lack of interference with the amidase activity of the fibrinolytic proteases, such fibrinolytic system sparing can be studied by the use of human plasma clots and their lysis by the respective fibrinolytic plasminogen activators.
(§4) Human factors X, Xa, IXa, XIa, and XIIa are purchased from Enzyme Research Laboratories, South Bend, Ind.; human urokinase from Leo Pharmaceuticals, Denmark; and recombinant activated Protein C (aPC) is prepared at Eli Lilly and Co. substantially according to U.S. Pat. No. 4,981,952. Chromogenic substrates: N-Benzoyl-Ile-Glu-Gly-Arg-p-nitroanilide (for factor Xa); N-Cbz-D-Arg-Gly-Arg-p-nitroanilide (for factor IXa assay as the factor Xa substrate); Pyroglutamyl-Pro-Arg-p-nitroanilide (for Factor XIa and for aPC); H-D-Pro-Phe-Arg-p-nitroanilide (for factor XIIa); and Pyroglutamyl-Gly-Arg-p-nitroanilide (for urokinase); are purchased from KabiVitrum, Stockholm, Sweden, or from Midwest Biotech, Fishers, Ind. Bovine trypsin is purchased from Worthington Biochemicals, Freehold, N.J., and human plasma kallikrein from Kabi Vitrum, Stockholm, Sweden. Chromogenic substrate H-D-Pro-Phe-Arg-p-nitroanilide for plasma kallikrein is purchased from Kabi Vitrum, Stockholm, Sweden. N-Benzoyl-Phe-Val-Arg-p-nitroanilide, the substrate for human thrombin and for trypsin, is synthesized according to procedures described above for the compounds of the present invention, using known methods of peptide coupling from commercially available reactants or purchased from Midwest Biotech, Fishers, Ind.

Trypsin = biological target: T2, Trypsin (Bos taurus, UniProt P00760); assay: Serine protease selectivity, chromogenic substrate (Kass), trypsin; assay type: biochemical, bovine; settings: substrate N-Benzoyl-Phe-Val-Arg-p-nitroanilide
T2 construct: Bovine trypsin is purchased; purchased Worthington Biochemicals, Freehold, N.J
T2 sequence (P00760 24-246): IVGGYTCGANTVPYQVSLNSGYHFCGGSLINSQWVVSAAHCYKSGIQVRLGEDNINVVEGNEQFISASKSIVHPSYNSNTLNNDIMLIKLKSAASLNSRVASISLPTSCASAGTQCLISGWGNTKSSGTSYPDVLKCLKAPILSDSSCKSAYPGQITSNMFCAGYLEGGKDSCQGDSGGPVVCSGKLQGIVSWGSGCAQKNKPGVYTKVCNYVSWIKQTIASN
Method: as §1, §2, §3, §4

Plasmin = biological target: T3, Plasmin (Homo sapiens, UniProt P00747); assay: Serine protease selectivity, chromogenic substrate (Kass), plasmin; assay type: biochemical; settings: substrate H-D-Val-Leu-Lys-p-nitroanilide
T3 construct: Human plasmin is purchased; purchased Boehringer Mannheim, Indianapolis, Ind
Method: as §1, §2, §3
(§5) Human plasmin is purchased from Boehringer Mannheim, Indianapolis, Ind.; nt-PA is purchased as single chain activity reference from American Diagnostica, Greenwich, Conn.; modified-t-PA6 (mt-PA6) is prepared at Eli Lilly and Company by procedure known in the art (See, Burck, et al., J. Biol. Chem., 265, […] (1990). Plasmin chromogenic substrate H-D-Val-Leu-Lys-p-nitroanilide and tissue plasminogen activator (t-PA) substrate H-D-Ile-Pro-Arg-p-nitroanilide are purchased from Kabi Vitrum, Stockholm, Sweden.

t-PA = biological target: T4, t-PA (Homo sapiens, UniProt P00750); assay: Serine protease selectivity, chromogenic substrate (Kass), t-PA; assay type: biochemical; settings: substrate H-D-Ile-Pro-Arg-p-nitroanilide
T4 construct: purchased American Diagnostica, Greenwich, Conn
Method: as §1, §2, §3, §5

Human plasma [1] = assay: Human plasma anticoagulation, thrombin time (TT); assay type: biochemical; settings: concentration required to double the thrombin time, linear extrapolation
Method: (§6) Dog plasma and rat plasma is obtained from conscious mixed-breed hounds (either sex, Hazelton-LRE, Kalamazoo, Mich., U.S.A.) or from anesthetized male Sprague-Dawley rats (Harlan Sprague-Dawley, Inc., Indianapolis, Ind., U.S.A.) by venipuncture into 3.8 percent citrate. Fibrinogen is prepared from in-date ACD human blood as the fraction I-2 according to previous procedures and specifications. Smith, Biochem. J., 185, 1-11 (1980); and Smith, et al., Biochemistry, 11, 2958-2967 (1972). Human fibrinogen is also purchased as 98 percent pure/plasmin free from American Diagnostica, Greenwich, Conn. Coagulation reagents ACTIN, Thromboplastin, and Human plasma are from Baxter Healthcare Corp., Dade Division, Miami, Fla. Bovine thrombin from Parke-Davis ([…], Mich.) is used for coagulation assays in plasma.
(§7) Coagulation assay procedures are as previously described. Smith, et al., Thrombosis Research, 50, 163-174 (1988). A CoAScreener coagulation instrument (American LABor, Inc.) is used for all coagulation assay measurements. The prothrombin time (PT) is measured by adding 0.05 mL saline and 0.05 mL Thromboplastin-C reagent to 0.05 mL test plasma. The activated partial thromboplastin time (APTT) is measured by incubation of 0.05 mL test plasma with 0.05 mL Actin reagent for 120 seconds followed by 0.05 mL CaCl2 (0.02M). The thrombin time (TT) is measured by adding 0.05 mL saline and 0.05 mL thrombin (10 NIH units/mL) to 0.05 mL test plasma. The compounds of formula I are added to human or animal plasma over a wide range of concentrations to determine prolongation effects on the APTT, PT, and TT assays. Linear extrapolations are performed to estimate the concentrations required to double the clotting time for each assay.

Human plasma [2] = assay: Human plasma anticoagulation, activated partial thromboplastin time (APTT); assay type: biochemical; settings: concentration required to double the APTT, linear extrapolation
Method: as §6, §7

Human plasma [3] = assay: Human plasma anticoagulation, prothrombin time (PT); assay type: biochemical; settings: concentration required to double the PT, linear extrapolation
Method: as §6, §7

T1 sequence (P00742 235-488 limits assumed): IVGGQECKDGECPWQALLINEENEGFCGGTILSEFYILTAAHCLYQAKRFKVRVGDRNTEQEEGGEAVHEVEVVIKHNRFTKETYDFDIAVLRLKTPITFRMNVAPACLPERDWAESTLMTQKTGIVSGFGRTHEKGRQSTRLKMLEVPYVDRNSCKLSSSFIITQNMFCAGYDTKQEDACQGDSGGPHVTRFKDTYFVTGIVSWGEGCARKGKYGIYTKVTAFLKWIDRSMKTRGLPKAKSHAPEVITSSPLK
T1 sequence (P00742 41-179 partner limits assumed): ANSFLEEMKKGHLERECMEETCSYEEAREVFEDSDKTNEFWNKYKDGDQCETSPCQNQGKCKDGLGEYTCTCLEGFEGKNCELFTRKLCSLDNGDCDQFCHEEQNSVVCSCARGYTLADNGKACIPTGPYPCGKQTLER
T3 sequence (P00747 581-810 limits assumed): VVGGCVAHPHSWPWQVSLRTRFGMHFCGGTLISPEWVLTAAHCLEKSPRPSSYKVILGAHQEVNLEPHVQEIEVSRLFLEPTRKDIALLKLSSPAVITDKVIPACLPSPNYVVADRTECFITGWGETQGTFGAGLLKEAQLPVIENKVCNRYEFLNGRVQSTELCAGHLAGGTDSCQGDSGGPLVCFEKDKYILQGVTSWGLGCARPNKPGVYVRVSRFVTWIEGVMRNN
T3 sequence (P00747 97-580 partner limits assumed): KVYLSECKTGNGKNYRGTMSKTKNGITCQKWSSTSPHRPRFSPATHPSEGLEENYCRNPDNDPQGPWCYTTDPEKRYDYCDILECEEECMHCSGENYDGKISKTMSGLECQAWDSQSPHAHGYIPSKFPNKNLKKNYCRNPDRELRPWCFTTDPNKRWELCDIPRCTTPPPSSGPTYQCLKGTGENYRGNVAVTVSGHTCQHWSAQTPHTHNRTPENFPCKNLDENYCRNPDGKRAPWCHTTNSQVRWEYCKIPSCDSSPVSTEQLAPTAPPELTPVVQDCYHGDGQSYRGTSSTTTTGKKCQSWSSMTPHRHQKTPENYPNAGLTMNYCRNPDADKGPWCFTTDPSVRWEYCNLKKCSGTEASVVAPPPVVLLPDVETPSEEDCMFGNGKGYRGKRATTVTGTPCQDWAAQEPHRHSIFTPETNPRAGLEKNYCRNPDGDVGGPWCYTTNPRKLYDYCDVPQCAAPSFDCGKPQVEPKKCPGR
T4 sequence (P00750 36-562): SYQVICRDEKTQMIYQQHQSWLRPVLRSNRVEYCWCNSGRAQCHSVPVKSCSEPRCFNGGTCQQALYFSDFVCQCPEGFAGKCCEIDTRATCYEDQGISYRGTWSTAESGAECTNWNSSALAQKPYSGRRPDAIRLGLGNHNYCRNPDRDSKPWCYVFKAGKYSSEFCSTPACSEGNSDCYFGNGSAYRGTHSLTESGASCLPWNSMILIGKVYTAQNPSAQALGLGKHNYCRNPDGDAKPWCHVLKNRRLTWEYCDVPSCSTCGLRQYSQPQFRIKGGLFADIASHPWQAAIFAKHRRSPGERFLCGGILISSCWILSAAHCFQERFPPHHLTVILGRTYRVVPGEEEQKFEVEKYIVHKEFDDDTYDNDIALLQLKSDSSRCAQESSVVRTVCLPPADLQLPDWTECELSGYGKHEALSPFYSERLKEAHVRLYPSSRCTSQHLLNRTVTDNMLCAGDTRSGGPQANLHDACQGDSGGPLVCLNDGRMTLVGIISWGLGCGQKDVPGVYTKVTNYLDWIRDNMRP

Row | Enzyme Kass, Human Thrombin (Human Thrombin) | Enzyme Kass, Xa (factor Xa) [L/mol × 10^6] | Enzyme Kass, Trypsin (Trypsin) [L/mol × 10^6] | Enzyme Kass, Plasmin (Plasmin) [L/mol × 10^6] | Enzyme Kass, t-PA (t-PA) [L/mol × 10^6] | SMILES | 2x Clotting time, TT (Human plasma [1]) [ng/mL] | 2x Clotting time, APTT (Human plasma [2]) | 2x Clotting time, PT (Human plasma [3])
1 | 8.7 L/mol × 10^6 | 0.48 | 6.2 | 0.34 | 0.002 | Cl.Cl.NC(N)=NCCCC(C=O)NC(=O)C1CC(Oc2ccccc2)CN1C(=O)C1NCCC2CCCCC21 [Example 14, L-1-Piq-Pro(4-cis-phenoxy)-ArgH.2 HCl] | 460 | 9,000 ng/mL | 18,000 ng/mL
2 | 2,200 L/mol × 10^6 | 32 | 910 | 26 | 1.5 | CCS(=O)(=O)N[C@@H](C(=O)N1C[C@@H](Oc2ccccc2)C[C@H]1C(=O)N[C@H](C=O)CCCNC(=N)N)c1ccccc1.Cl (relative stereo) [Example 17, EtSO2 -D-Phg-Pro(4-cis-phenoxy)-ArgH.HCl] | 16 | 380 ng/mL | 1,200 ng/mL
